The subject of data set [1] is MSSA ATCC 29213 and MRSA ATCC 43300. Put plainly: MIC and MBC on methicillin-sensitive and methicillin-resistant S. aureus. The following applies: for fold more potent than inferior (methylenoxy) homolog: MRSA and MSSA, 1 vs VI, 2 vs VII, 3 vs V, 5 vs 4, 8 vs 7; for MIC / MBC: Staphylococcus aureus, MSSA ATCC 29213 and MRSA ATCC 43300; for MIC: lowest dose arresting bacterial growth; for MBC: minimal dose for irreversible block. The data set is classed as cell-based, Staphylococcus aureus. On the procedure:
(§1) We first determined the minimal inhibitory concentration (MIC), i.e., the lowest compound dose (µM) arresting bacterial growth, and the minimal bactericidal concentration (MBC), i.e., the minimal dose (µM) of the compound required for an irreversible block, even after drug removal. Secondly, the derivatives having the most promising activities vs. MRSA were also tested on human MRC-5 cells, calculating their percentages of cytotoxicity by using the MTT assay. Cells were first incubated with each compound for 24 h, then the derivative was removed, and the cells were overlaid with MTT for an additional 3 h. After that time, DMSO replaced the MTT solution, and after 10 min the absorbance was measured at 570 nm. The percentage of cytotoxicity was defined by the formula [100 − (sample OD/untreated cells OD) × 100]. Table 2 reports TD90, defined as the compound concentration (µM) that reduced viability of MRC-5 cells by 90%. Moreover, we reported the therapeutic index (TI), as TD90 and MBC ratio.
The antibacterial activity was tested on both a methicillin-sensitive and a methicillin-resistant S. aureus strain, dissolving all the compounds in dimethyl sulfoxide (DMSO) and using fresh cell cultures at 10^5 cells/mL, in a final volume of 2 mL. The detailed protocol is identical to what was previously reported. Every assay was performed in quadruplicate, and for each series of experiments, both positive (no compounds) and negative (no bacteria) controls were included.

The next data set concerns MRC-5 cells. Put plainly: MTT cytotoxicity assay on MRC-5 cells. The data set is classed as cell-based, human. The following applies: concentration reducing viability of MRC-5 cells by 90%, 24 h incubation. On the procedure:
as §1
Compounds showing an antibacterial activity at a concentration lower than 10 μg/mL were serially diluted in DMEM and tested for cytotoxicity on MRC-5 cells by the MTT assay (Sigma, St Louis, MO, USA). Protocol was the same previously reported.
A general note: Formazan colour is commonly taken as a measure of viable cells.

The next data set has as its system MDRSA 12.1. The data set can be described thus: MIC on multidrug resistant clinical S. aureus strain MDRSA 12.1 (EUCAST/CLSI). The data set is classed as cell-based, Staphylococcus aureus. The following applies: for MIC: Staphylococcus aureus, MDRSA 12.1. On the procedure:
(§2) We tested 1–8 for their antimicrobial activity on different S. aureus strains (Table 2).
(§3) The antibacterial activities on MDRSA 11.7 and MDRSA 12.1 were performed following the European Committee on Antimicrobial Susceptibility Testing (EUCAST) recommendations and Clinical and Laboratory Standards Institute (CLSI) guidelines, as detailed before. Tetracycline was used as a positive control on every assay plate.

The next data set has as its system MDRSA 11.7. The data set can be described thus: MIC on multidrug resistant clinical S. aureus strain MDRSA 11.7 (EUCAST/CLSI). The following applies: Staphylococcus aureus. The data set is classed as cell-based. On the procedure: as §2, §3
Data set [2] concerns B. subtilis FtsZ rings (strain WM5126, GFP-ZapA). The data set can be described thus: Fluorescence microscopy of GFP-ZapA (Z ring) localization. The data set is classed as cell-based, Bacillus subtilis. The following applies: 1 h exposure. How it is done:
(yellow arrows in Figure 5 highlight normal sharp bands at the future division sits). On the contrary, in cells treated with compounds 7 and 8, we observed GFP-ZapA forming many (0.4 µg/mL 7) or nearly all (0.8 µg/mL 7 or 0.4 µg/mL 8) foci or focal clusters (white arrows in Figure 5), and abnormal cell elongation is clearly evident. The perturbation of Z rings and cell elongation is similar to the previously described effects of 8j.
For fluorescence microscopy, overnight cultures of WM5126 were grown at […] (after 1:200 dilution of overnight and addition of 0.1% xylose to induce expression of GFP-ZapA) for ~2 h until reaching an OD600 of ~0.2, then treated with no drug or with compounds 7 or 8 diluted in water from stock solutions of 40 mg/mL (8) or 27 mg/mL (7) in DMSO. Those dilutions (40 µg/mL in water) were then added at 1:100 or 1:50 to the cultures and grown for 1 h shaking at 33 °C prior to spotting on a thin layer of 1% agarose in phosphate buffered saline. Cells were imaged with differential interference contrast (DIC) and fluorescence using an Olympus BX100 fitted with a 100 × Plan Apochromat objective (N.A. 1.4) and a GFP filter set (Chroma). Images were acquired with CellSens software (Olympus) and DIC, and fluorescent images of the same field were overlaid using ImageJ [31].
Figure 5 Effect of compounds 7 and 8 on B. subtilis Z rings. B. subtilis strain WM5126 was induced with 0.1% xylose to express GFP-ZapA, then exposed to compounds 7 or 8 for 1 h during exponential growth at 37 °C prior to imaging by DIC and fluorescence. Yellow arrows indicate normal sharp rings at the future division site, while white arrows indicate abnormal foci or clusters. Scale bar, 5 µm.

The subject of data set [3] is B. subtilis strain WM5126. The data set can be described thus: Spot viability assay on LB plates. The data set is classed as cell-based. The following applies: Bacillus subtilis, spotted on LB plates with 0, 0.03, 0.06, 0.1 or 1 µg/mL compound. On the procedure:
The promising properties of these new compounds prompted us to test them on B. subtilis, a model Gram-positive species used previously in evaluating other benzamides, such as 8j, the benzothiazole derivative of PC190723 [28]. We chose derivatives 1, 5, and 8, which had the lowest MICs on S. aureus and because they were representative of different substituents on the benzodioxane scaffold. B. subtilis strain WM5126 was grown until early log phase, and then 1 × and 10 × dilutions of the culture were spotted onto LB plates containing 0, 0.03, 0.06, 0.1, or 1 µg/mL final concentration of the compounds.
The two B. subtilis strains used were WM3612 (JH642 amyE::Pxyl-gfp-gp56), described in Bhambani et al., and WM5126 (JH642 amyE::Pxyl-gfp-zapA), which is the same as strain FG347 [29]. For spot viability assays on plates, compounds were diluted from DMSO stocks into molten LB agar as described above and mixed well before solidifying. WM3612 cultures were grown to early exponential phase in LB broth at 37 °C, then spotted directly or after 1:10 dilution into LB onto LB plates containing various concentrations of compounds. After allowing spots to air dry, plates were then incubated overnight at 34 °C and photographed.

The next data set has as its system MSSA ATCC29213. Also on record: method as in PMID 25462242, PMID 27191617, PMID 31750973, PMID 28586174, PMID 32260339. The following applies: Figure 1; cited from earlier work.

Converted amounts (≈) assume the structure as drawn.

`CCc1nc(-c2ccc3c(c2)OC(CCOc2ccc(F)c(C(N)=O)c2F)CO3)no1` (centres unmarked) [Compound 2]: in data set [1], the “fold more potent than inferior (methylenoxy) homolog” value is listed as 10 fold, the lowest concentration to inhibit growth (MIC) was 0.6 µM (≈ 0.259 µg/mL) and the MBC (commonly the smallest concentration meeting the test's criterion for killing) was found to be 0.6 µM (≈ 0.259 µg/mL). Also, the TD90 with MRC-5 cells worked out at 1854 µM. In the data set with MDRSA 12.1, the MIC – broadly, the least concentration at which growth counts as inhibited – was 0.6 µM (≈ 0.259 µg/mL). In addition, in the data set on MDRSA 11.7, the lowest concentration to inhibit growth (MIC) was 0.6 µM (≈ 0.259 µg/mL).
With `NC(=O)c1c(F)ccc(OCC2COc3cc4c(cc3O2)CCCC4)c1F` (centres unmarked) [Compound 7], the MIC amounted to 13.3 µM (≈ 4.99 µg/mL) in data set [1], 5.3 µM (≈ 1.99 µg/mL) in the data set with MDRSA 12.1 and 10.7 µM (≈ 4.02 µg/mL) against MDRSA 11.7. The compound further showed an MBC in data set [1] of 13.3 µM (≈ 4.99 µg/mL). Besides, the entries for the “GFP-ZapA forming foci or focal clusters” value in data set [2] (0.4 µg/mL) and in data set [2] (0.8 µg/mL) were “many” and “nearly all”, respectively. Besides, the TD90 in the data set with MRC-5 cells amounted to 200 µM.
For the compound `Cc1nc(-c2ccc3c(c2)OC(CCOc2ccc(F)c(C(N)=O)c2F)CO3)no1` (centres unmarked) [Compound 1, 3-[2-(7-(5-methyl-1,2,4-oxadiazol-3-yl)-1,4-benzodioxan-2-yl)ethyloxy]-2,6-difluorobenzamide], in data set [1], the “fold more potent than inferior (methylenoxy) homolog” value came to 5 fold. Also, the MIC in data set [1] is 1.2 µM (≈ 0.501 µg/mL); in data set [3] it was 0.1 to 1 µg/mL (≈ 0.24 to 2.4 µM); against MDRSA 12.1 it was 1.2 µM (≈ 0.501 µg/mL); with MDRSA 11.7, 1.2 µM (≈ 0.501 µg/mL). The same compound registered an MBC in data set [1] of 1.2 µM (≈ 0.501 µg/mL). The compound also registered a TD90 with MRC-5 cells greater than 1910 µM.
On to `NC(=O)c1c(F)ccc(OCCCC2COc3ccccc3O2)c1F` (centres unmarked) [III], for which the MIC with MSSA ATCC29213 was 28.6 µM (≈ 9.99 µg/mL).
`Cc1nc(-c2ccc3c(c2)OC(COc2ccc(F)c(C(N)=O)c2F)CO3)no1` (centres unmarked) [VI, reference compound]: the MIC was 6.2 µM (≈ 2.5 µg/mL) in data set [1], 6.2 µM (≈ 2.5 µg/mL) in the data set with MSSA ATCC29213, 5 µM (≈ 2.02 µg/mL) in the data set with MDRSA 12.1 and 9.9 µM (≈ 3.99 µg/mL) against MDRSA 11.7. In addition, the MBC in data set [1] is 6.2 µM (≈ 2.5 µg/mL). Further, the TD90 in the data set on MRC-5 cells was greater than 1983 µM.
On to `CSc1nc(-c2ccc3c(c2)OC(CCOc2ccc(F)c(C(N)=O)c2F)CO3)no1` (centres unmarked) [Compound 3, 3-[2-(7-(5-methylthio-1,2,4-oxadiazol-3-yl)-1,4-benzodioxan-2-yl)ethyloxy]-2,6-difluorobenzamide], for which, in data set [1], the “fold more potent than inferior (methylenoxy) homolog” value is reported as “three”, the MIC was determined as 0.5 µM (≈ 0.225 µg/mL) and the MBC was found to be 0.5 µM (≈ 0.225 µg/mL). Moreover, the TD90 with MRC-5 cells was 1668 µM. The “times more active than inferior homolog” value in the data set with MDRSA 12.1 (MDRSA, 3 vs V) was “two”. For the same compound, the lowest concentration to inhibit growth in the data set on MDRSA 12.1 (MIC) was 1.1 µM (≈ 0.494 µg/mL). In the data set with MDRSA 11.7, the MIC was 1.1 µM (≈ 0.494 µg/mL).
For `CCc1nc(-c2ccc3c(c2)OC(COc2ccc(F)c(C(N)=O)c2F)CO3)no1` (centres unmarked) [VII, reference compound], the MIC in data set [1] was 6 µM (≈ 2.5 µg/mL); in the data set on MSSA ATCC29213 it was 6.0 µM (≈ 2.5 µg/mL); in the data set on MDRSA 12.1, 4.8 µM (≈ 2 µg/mL); in the data set with MDRSA 11.7 it was 9.6 µM (≈ 4.01 µg/mL). The MBC in data set [1] was 6 µM (≈ 2.5 µg/mL). In the data set on MRC-5 cells, this compound returned a TD90 greater than 1916 µM.
As to `COC(=O)c1ccc2c(c1)OC(COc1ccc(F)c(C(N)=O)c1F)CO2` (centres unmarked) [IV], the MIC in the data set on MSSA ATCC29213 is 1.6 µM (≈ 0.607 µg/mL).
In the case of `NC(=O)c1c(F)ccc(OCCC2COc3ccccc3O2)c1F` (centres unmarked) [II, reference compound], the MIC in data set [1] is 14.9 µM (≈ 5 µg/mL); in the data set on MSSA ATCC29213, 14.9 µM (≈ 5 µg/mL); with MDRSA 12.1, 11.9 µM (≈ 3.99 µg/mL); against MDRSA 11.7, 11.9 µM (≈ 3.99 µg/mL). Moreover, the MBC in data set [1] is 14.9 µM (≈ 5 µg/mL). This compound also gave a TD90 in the data set with MRC-5 cells of 226 µM.

The values above are taken from article PMC8071314, “Computational Design and Development of Benzodioxane-Benzamides as Potent Inhibitors of FtsZ by Exploring the Hydrophobic Subpocket” (Antibiotics, 2021).
